The results in this text go back to US20220098191A1 (priority 2019, published 2022).

For one data set, the system named is LIM1215 (Gastric). Briefly: MTT in vitro cytotoxicity, 72 hour incubation. Type of data set: cell-based. The following applies: MTT assay, LIM1215 cells. As for the experimental part: (§1) The in vitro cytotoxicity of a selection of compounds was determined in a panel of cell lines using the standard MTT assay for a 72 hour incubation period (Table 1).
(§2) Tumor cell lines were maintained in RPMI1640 medium supplemented with 10% heat-inactivated fetal bovine serum, 2 mM L-glutamine and 1 mM sodium pyruvate. 1800 cells per well were seeded in a volume of 180 μl in a 96-well flat bottom polystyrene plate. The cells were allowed to adhere overnight at 37° C. in a CO2 incubator. Ligands were initially formulated in DMSO, and stocks stored at −80° C. They were then further formulated at lox concentration in RPMI1640 medium. 20 μl of diluted samples were added into each treatment well. On each plate, blank wells with no cells, and untreated wells containing cells, were included. Plates were then cultured at 37° C. in a CO2 incubator for 72 hrs. Cytotoxicity was evaluated using a tetrazolium salt-based assay, the MTT assay. After 72 hours, the supernatant was removed from each well and 200 μl of a sterile filtered 500 μg/ml MTT solution in water added to each well. The plates were then incubated at 37° C. in a CO2 incubator for 4 hrs. The supernatant was then removed and the formazan crystals formed solubilized by adding 150 μl of DMSO to each well. The plate was then read on a plate reader at 540 nm, and percentage cell survival calculated as follows: ((mean absorbance treated wells at concentration×−mean absorbance blank wells)÷(mean absorbance untreated wells at concentration×−mean absorbance blank wells))×100. Data were plotted as concentration in nM vs. % cell survival in Microsoft Excel, and IC50 values (concentration where cell survival is reduced by a half) were determined from the graph.
A general note: Tetrazolium dyes change colour on reduction, which living cells bring about.

Another data set deals with SW48 (Gastric). Briefly: MTT in vitro cytotoxicity, 72 hour incubation. The settings on record: Homo sapiens, MTT assay, SW48 cells. The data set is classed as cell-based. The procedure:
as §1, §2

Another data set relates to SW620 (Gastric). The data set is described as follows: MTT in vitro cytotoxicity, 72 hour incubation. The data set is classed as cell-based. The settings on record: Homo sapiens, SW-620, MTT assay, SW620 cells. As for the experimental part: as §1, §2
The subject of another data set is JVM2 (Lymphoma). The data set is described as follows: MTT in vitro cytotoxicity, 72 hour incubation. The settings on record: Homo sapiens, JVM-2, MTT assay, JVM2 cells. Type of data set: cell-based. As for the experimental part:
as §1, §2

The next data set concerns Jurkat (Leukaemia). Briefly: MTT in vitro cytotoxicity, 72 hour incubation. The settings on record: Homo sapiens, MTT assay, Jurkat cells. The data set is classed as cell-based. As for the experimental part:
as §1, §2

For the next data set, the system named is RAJI (Lymphoma). Briefly: MTT in vitro cytotoxicity, 72 hour incubation. Type of data set: cell-based. The following applies: Homo sapiens, MTT assay, RAJI cells. The procedure: as §1, §2
The nature of data set [1]: Hydrophobicity investigation of free payloads by UPLC (hydrophobicity model). The settings on record: single runs 1-3 (triplicate), 0.1% TFA water/acetonitrile gradient. Type of data set: physicochemical. The procedure:
Both mobile phases were filtered through 0.22 μm filters and degassed by sonication under argon. Caffeine (Merck, UPLC grade) was employed a standard. Blank solvent samples (i.e., DMSO) were used during sample runs to confirm lack of carryover between injections and to monitor column performance.
UPLC-MS analysis was performed on a Waters Acquity H-Class Ultra-Performance Liquid Chromatography (UPLC) System equipped with an Acquity UPLC BEH, […] 50×2.10 mm (Waters, UK) column and a photodiode array detector […], using Waters MassLynx software. The gradient system used for LC analysis consisted of 0.1% trifluoroacetic acid (TFA) in water as Solvent A, and 0.1% trifluoroacetic acid (TFA) in acetonitrile as Solvent B. TFA was purchased from Merck (UK), and diluted to the required concentration with UPLC grade water and acetonitrile for Solvent A and Solvent B, respectively. TFA was added to ensure acidic conditions throughout the analysis. A flow rate of 0.4 mL/min was used, and the detection wavelength was 254 nm. Mass spectrometry data were collected using a Waters SQ Detector 2 coupled to a Waters Acquity H Class UPLC and a Photo Diode Array Detector (ACQ-PDA). The Waters SQ Detector 2 parameters were set to: Capillary (kV), 3.00; Cone (V), 30; De-solvation Temperature (° C.), 600; Cone flow rate (L/h), 50; De-solvation flow rate (L/h), 600.
Gradient method used: from 95% A/5% B to 20% B over 5 min. Then from 20% B to 60% B over 35 min, followed by from 60% B to 85% B over 10 min. It was further changed from 85% B to 90% B over 5 min and kept for a further 5 min. Finally, from 90% B to 95% B over 2.5 min, and then to 20% B over 2.5 min. 10 μL was split via a zero-dead volume T-piece which passed into the mass spectrometer.
Compounds were provided in powder form and were dissolved in DMSO to achieve 5 mM stock solution. This solution was then diluted to 500 μM with 50% acetonitrile/50% water.
A number of commercially available ADC payloads and internal reference compounds were also incorporated into the analysis, and their structures are presented in Table 3.

Each structure is given as a SMILES string. Where “and” joins values, the source holds several entries; their conditions need not be identical. Equal values may be shown once.

A word on the IC50: it is the concentration needed to halve the response being measured. On to `CNS(=O)(=O)c1ccc(C2=CCN3C(=O)c4cc(OC)c(OCc5cccc(CC(=O)N6C[C@@H](CCl)c7c6cc(O)c6ccccc76)n5)cc4N=C[C@@H]3C2)cc1` [Compound 35, 4-((S)-3-((6-(2-((S)-1-(Chloromethyl)-5-hydroxy-1,2-dihydro-3H-benzo[e]indol-3-yl)-2-oxoethyl)pyridin-2-yl)methoxy)-2-methoxy-12-oxo-6a,7,10,12-tetrahydrobenzo[e]pyrido[1,2-a][1,4]diazepin-8-yl)-N-methylbenzenesulfonamide], for which the IC50 in the data set on LIM1215 (Gastric) was found to be 4.38 nM; in the data set with SW48 (Gastric), 3.15 nM; in the data set on SW620 (Gastric), 2.12 nM.
As to `CNS(=O)(=O)c1ccc(C2=CCN3C(=O)c4cc(OC)c(OCCCCCC(=O)N5C[C@@H](CCl)c6c5cc(O)c5ccccc65)cc4N=C[C@@H]3C2)cc1` [Compound 72, 4-((S)-3-((6-((S)-1-(Chloromethyl)-5-hydroxy-1,2-dihydro-3H-benzo[e]indol-3-yl)-6-oxohexyl)oxy)-2-methoxy-12-oxo-6a,7,10,12-tetrahydrobenzo[e]pyrido[1,2-a][1,4]diazepin-8-yl)-N-methylbenzenesulfonamide], the IC50 stood at 0.0016 nM with JVM2 (Lymphoma); 0.0015 nM with Jurkat (Leukaemia); 0.32 nM with LIM1215 (Gastric); 0.0019 nM in the data set on RAJI (Lymphoma); 0.29 nM in the data set with SW48 (Gastric); 0.21 nM in the data set on SW620 (Gastric). Further, the “Retention Time (min) seco form” value in data set [1] is 24.02 min and 24.04 min. The “Retention Time (min) spiro form” value in data set [1] is 17.11 min and 17.15 min.
Regarding `CNS(=O)(=O)c1ccc(C2=CCN3C(=O)c4cc(OC)c(OCc5cccc(CC(=O)N6C[C@@H](CCl)c7c6cc(O)c6ccccc76)c5)cc4N=C[C@@H]3C2)cc1` [Compound 31, 4-((S)-3-((3-(2-((S)-1-(Chloromethyl)-5-hydroxy-1,2-dihydro-3H-benzo[e]indol-3-yl)-2-oxoethyl)benzyl)oxy)-2-methoxy-12-oxo-6a,7,10,12-tetrahydrobenzo[e]pyrido[1,2-a][1,4]diazepin-8-yl)-N-methylbenzenesulfonamide], the values for the IC50 in the data set on LIM1215 (Gastric), with SW48 (Gastric) and in the data set on SW620 (Gastric) were 2.7 nM, 1.3 nM and 0.35 nM, respectively.
With `CNS(=O)(=O)c1ccc(C2=CCN3C(=O)c4cc(OC)c(OC[C@H](O)CC(=O)N5C[C@@H](CCl)c6c5cc(O)c5ccccc65)cc4N=C[C@@H]3C2)cc1` [Compound 92, 4-((S)-3-((R)-4-((S)-1-(Chloromethyl)-5-hydroxy-1,2-dihydro-3H-benzo[e]indol-3-yl)-2-hydroxy-4-oxobutoxy)-2-methoxy-12-oxo-6a,7,10,12-tetrahydrobenzo[e]pyrido[1,2-a][1,4]diazepin-8-yl)-N-methylbenzenesulfonamide], the IC50 with JVM2 (Lymphoma) was 0.12 nM; with Jurkat (Leukaemia), 0.55 nM; in the data set with RAJI (Lymphoma) it was 0.41 nM. Besides, the “Retention Time (min) seco form” value in data set [1] is 18.82 min and 18.84 min. Also, the “Retention Time (min) spiro form” value in data set [1] is 12.16 min and 12.18 min.
